Molecules are shown by their SMILES. Counter-ions that a name gives are not always drawn.

Data set [1] addresses T1, human m2 receptor (Homo sapiens, UniProt P08172).
T1 sequence (P08172 1-466): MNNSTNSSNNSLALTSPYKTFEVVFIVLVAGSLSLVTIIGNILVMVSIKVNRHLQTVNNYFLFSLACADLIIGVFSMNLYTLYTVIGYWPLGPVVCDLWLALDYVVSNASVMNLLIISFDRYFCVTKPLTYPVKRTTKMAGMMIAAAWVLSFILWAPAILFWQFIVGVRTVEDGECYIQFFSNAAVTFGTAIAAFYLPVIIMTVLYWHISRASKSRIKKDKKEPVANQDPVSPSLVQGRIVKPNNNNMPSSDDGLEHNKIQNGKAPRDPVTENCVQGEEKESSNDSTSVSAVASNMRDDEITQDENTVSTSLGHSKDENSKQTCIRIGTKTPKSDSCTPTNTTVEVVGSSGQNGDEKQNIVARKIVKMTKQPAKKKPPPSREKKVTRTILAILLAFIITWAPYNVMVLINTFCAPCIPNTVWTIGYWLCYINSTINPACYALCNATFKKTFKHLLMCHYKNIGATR
Nature of the data set: inhibition of forskolin-stimulated cAMP accumulation, m2 receptor. The class given is cell-based. The note with it: standard agonist, typical value, 5 μM forskolin. The source says:
(§1) Activity of the compounds of formula I for muscarinic receptors can be determined according to the following protocol. Chinese hamster ovary cells (CHO-K1) stably transformed to express human m1-m5 receptors can be obtained from Dr. Tom Bonner (Laboratory of Cell Biology, National Institute of Mental Health, Building 36, Rm 3A-17, National Institute of Health, Bethesda, Md. 20892). Cells are maintained in Dulbecco's Modified Eagle Medium containing 10% fetal calf serum and harvested at confluence by brief incubation in Ca^++/Mg^++-free phosphate-buffered saline containing 4 mM EDTA.
(§2) Functional responses at m2 and m4 receptors can be determined by measuring inhibition of forskolin-stimulated cAMP accumulation. Harvested cells are preincubated (15 minutes at 20-22° C.) with 3-isobutyl-1-methyl-xanthine (IBMX; 0.2 mM) and then incubated (10 minutes at 20-22° C.) in a HEPES-buffered Krebs solution with test compounds in the presence of 5 μM forskolin. The reaction is stopped by the addition of 10 N acetic acid and the cAMP content of dried supernatants is determined using a scintillation proximity assay (Amersham).
On the technique in general: Cyclic AMP is a second messenger, typically raised through Gs and lowered through Gi signalling.

For data set [2], the target named is T2, human m4 receptor (Homo sapiens, UniProt P08173).
T2 construct: host or cells: CHO-K1
T2 sequence (P08173 1-479): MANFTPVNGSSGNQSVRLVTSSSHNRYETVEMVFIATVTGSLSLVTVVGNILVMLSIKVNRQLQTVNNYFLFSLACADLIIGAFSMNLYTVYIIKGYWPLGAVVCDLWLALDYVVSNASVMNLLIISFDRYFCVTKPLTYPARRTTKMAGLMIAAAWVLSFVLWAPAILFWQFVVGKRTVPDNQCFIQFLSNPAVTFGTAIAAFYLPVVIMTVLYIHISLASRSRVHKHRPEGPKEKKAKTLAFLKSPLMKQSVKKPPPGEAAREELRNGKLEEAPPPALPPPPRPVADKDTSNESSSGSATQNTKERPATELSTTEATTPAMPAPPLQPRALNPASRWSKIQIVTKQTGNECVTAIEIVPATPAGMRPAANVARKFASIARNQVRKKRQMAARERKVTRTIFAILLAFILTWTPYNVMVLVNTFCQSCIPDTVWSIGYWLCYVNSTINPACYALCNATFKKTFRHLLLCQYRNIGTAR
Description: inhibition of forskolin-stimulated cAMP accumulation, m4 receptor. It is filed as cell-based. The note with it: standard agonist, typical value, 5 μM forskolin.
Source text: as §1, §2

In the case of `c1ccc(N=C(NC(=Nc2ccccc2)N2CCCCCC2)c2ccccc2)cc1` (as salt: hydroiodid) [Example 17, N-(azepan-1-yl-phenylimino-methyl)-N′-phenyl-benzamidine], the melting point (in general, the temperature of the solid-liquid transition) fell in the range of 228 to 229 °C.
Still for that read-out and setting: with `COc1ccc(N=C(NC(=Nc2ccccc2)N2CCCCCC2)c2ccccc2)cc1` (as salt: hydroiodid) [Example 18, N-(azepan-1-yl-phenylimino-methyl)-N′-(4-methoxy-phenyl)-benzamidine] the figure was 241 to 243 °C; with `Fc1ccc(N=C(NC(=Nc2ccccc2)N2CCCCCC2)c2ccccc2)cc1` (as salt: hydroiodid) [Example 19, N-(azepan-1-yl-phenylimino-methyl)-N′-(4-fluoro-phenyl)-benzamidine], > 228 °C (dec.); with `CC1CCN(C(=Nc2ccccc2)NC(=Nc2ccccc2)c2ccccc2)CC1` (as salt: hydroiodid) [Example 21, N-[(4-methyl-piperidin-1-yl)-phenylimino-methyl]-N′-phenyl-benzamidine], 192 to 195 °C (dec.).
On the same count and under the same terms, with `c1ccc(N=C(NC(=Nc2ccccc2)N2CCCCCCC2)c2ccccc2)cc1` (as salt: hydroiodid) [Example 22, N-(azocan-1-yl-phenylimino-methyl)-N′-phenyl-benzamidine] the figure was 252 to 253 °C (dec.); with `CC1CCCN(C(=Nc2ccccc2)NC(=Nc2ccccc2)c2ccccc2)C1` (centres unmarked) (as salt: hydroiodid) [Example 23, N-[(3-methyl-piperidin-1-yl)-phenylimino-methyl]-N′-phenyl-benzamidine], 179 to 182 °C (dec.).
On to `Cc1cccc(C)c1C(=Nc1ccccc1)NC(=Nc1ccccc1)N1CCCC1` (as salt: hydroiodid) [Example 31, N-[(2,6-dimethyl-phenyl)-phenylimino-methyl]-N′-phenyl-pyrrolidine-1-carboxamidine], for which the melting point is 255 to 257 °C.
On the same count and under the same terms, with `CC1CCCCN1C(=Nc1ccccc1)NC(=Nc1ccccc1)c1ccccc1` (centres unmarked) (as salt: hydroiodid) [Example 32, N-[(2-methyl-piperidin-1-yl)-phenylimino-methyl]-N′-phenyl-benzamidine] the figure was 181 to 183 °C.
`CC1CCCCN1C(=Nc1ccccc1)NC(=Nc1ccccc1)c1ccccc1` (centres unmarked) (as salt: hydroiodid) [Example 33, N-[(2-methyl-piperidin-1-yl)-phenylimino-methyl]-N′-phenyl-benzamidine] gave a melting point of 180 to 182 °C.
Still for that read-out and setting: with `c1ccc(N=C(NC(=Nc2ccccc2)N2CCCCO2)c2ccccc2)cc1` (as salt: nitrate) [Example 4, N-([1,2]Oxazinan-2-yl-phenylimino-methyl)-N′-phenyl-benzamidine] the figure was 187 to 190 °C; with `OC1CCCN(C(=Nc2ccccc2)NC(=Nc2ccccc2)c2ccccc2)C1` (centres unmarked) (as salt: nitrate) [Example 38, N-[(3-hydroxy-piperidin-1-yl)-phenylimino-methyl]-N′-phenyl-benzamidine], 189 to 192 °C.
With `Fc1ccccc1C(=Nc1ccccc1)NC(=Nc1ccccc1)N1CCCC1` (as salt: nitrate) [Example 39, N-[(2-fluoro-phenyl)-phenylimino-methyl]-N′-phenyl-pyrrolidine-1-carboxamidine], the melting point is 194 to 196 °C.
Turning to `Cc1ccccc1C(=NC(=Nc1ccncc1)N1CCCCC1C)Nc1ccc(F)cc1` (centres unmarked) (as salt: nitrate) [Example 40, N-(4-fluoro-phenyl)-2-methyl-N′-[(2-methyl-piperidin-1-yl)-(pyridin-4-ylimino)-methyl]-benzamidine], the melting point is 209 to 210 °C (dec.).
The same measure, in the same setting: the result for `CC1CCCCN1C(N=C(Nc1ccc(F)cc1)c1c(F)cccc1F)=Nc1ccccc1` (centres unmarked) (as salt: nitrate) [Example 44, 2,6-difluoro-N-(4-fluoro-phenyl)-N′-[(2-methyl-piperidin-1-yl)-phenylimino-methyl]-benzamidine] reads 163 to 165 °C (dec.); that for `CC1CCCCN1C(N=C(Nc1ccc(F)cc1)c1c(F)cccc1F)=Nc1ccc(F)cc1` (centres unmarked) (as salt: nitrate) [Example 51, 2,6-difluoro-N-(4-fluoro-phenyl)-N′-[(4-fluoro-phenylimino)-(2-methyl-piperidin-1-yl)-methyl]-benzamidine], 171 to 173 °C; that for `CC1CCCC(C)N1C(=Nc1ccc(F)cc1)NC(=Nc1ccc(F)cc1)c1c(F)cccc1F` (centres unmarked) (as salt: nitrate) [Example 52, N-[(2,6-dimethyl-piperidin-1-yl)-(4-fluoro-phenylimino)-methyl]-2,6-difluoro-N′-(4-fluoro-phenyl)-benzamidine], 172 to 174 °C.
Consider `Fc1ccc(N=C(NC(=Nc2ccccc2)N2CCCCCC2)c2c(F)cccc2F)cc1` (as salt: nitrate) [Example 56, N-(azepan-1-yl-phenylimino-methyl)-2,6-difluoro-N′-(4-fluoro-phenyl)-benzamidine], for which the melting point lay in the range of 171 to 173 °C.
Same read-out and setting: with `C(=C(Nc1ccccc1)c1ccccc1)C(=Nc1ccccc1)N1CCCC1` (as salt: nitrate) [Example 87, (3-phenylimino-3-pyrrolidin-1-yl-1-phenyl-propenyl)-phenylamine] the figure was 184 to 186 °C; with `Cc1ccccc1C(=CC(=Nc1ccccc1)N1CCCCO1)Nc1ccc(F)cc1` (as salt: nitrate) [Example 91, (3-phenylimino-3-[1,2]oxazinan-2-yl-1-o-tolyl-propenyl)-(4-fluoro-phenyl)-amine], 151 to 153 °C.
For `Fc1ccc(NC(=CC(=NC2CC2)N2CCCCO2)c2ccccc2)cc1` (as salt: nitrate) [Example 110, (3-cyclopropylimino-3-[1,2]oxazinan-2-yl-1-phenyl-propenyl)-(4-fluoro-phenyl)-amine], the melting point was in the range of 82 to 84 °C.
As to `C[N+](C)(C)CCOC(N)=O` [Carbachol], the “inhibition of the forskolin-stimulated cAMP levels” value in data set [1] and in data set [2] was 60-80% throughout.
The compound `Cc1ccccc1C(=NC(=Nc1ccccc1)C1(C)CCCCC1)Nc1ccc(F)cc1` [Example 11, N-(4-Fluoro-phenyl)-2-methyl-N′-[(1-methyl-cyclohexyl)-phenylimino-methyl]-benzamidine] yielded a melting point of 210 to 211 °C.

Source of the values: US6911477B2, “Muscarinic receptor agonists” (Pfizer Inc., priority 1996, dated 2005).
